Assay results published in publication PMC9993459, “A novel selective spleen tyrosine kinase inhibitor SKI-O-703 (cevidoplenib) ameliorates lupus nephritis and serum-induced arthritis in murine models” (Clinical and Experimental Immunology, 2022).
“Also recorded” adds a separate entry of the source.

Experiments:
[1] = biological target: T1, phosphorylated Syk (p-Syk) in Ramos cells (Homo sapiens, UniProt P43405); assay: p-Syk ELISA in anti-IgM-stimulated Ramos cells (BCR signal); type: cell-based
T1 construct: endogenous in cells; host or cells: Ramos (ATCC), THP-1 (ATCC), human CD14+ monocytes (Lonza)
Method: THP-1 and Ramos cell lines and human CD14^+ monocytes were purchased from the American Type Culture Collection (ATCC) and Lonza, respectively. After treatment with Syk inhibitors for 1 h, THP-1 cells and monocytes were stimulated for 15 min with 100 μg/ml human IgG (Invitrogen), and Ramos cells were stimulated with 2 μg/ml anti-human IgM monoclonal Ab (mAb) (Bathyl). Cells were lysed in RIPA buffer containing 1% NP-40, 1% sodium deoxycholate, 0.1% SDS, and a mixture of protease and phosphatase inhibitors (Thermo Scientific). The lysates were assayed by standard immunoblotting methods and ELISA. Primary Abs used for immunoblotting were anti-phospho-Syk ([…]), anti-phospho-Vav (Y174), anti-phospho-PLCγ1 (Y1217) and anti-phospho-BLNK (Y96) Abs (all from Cell Signaling). ELISAs to detect phospho-Syk (Y525/526) were performed according to the manufacturer’s protocol (Cell Signaling).
Ramos cells (A), human primary monocytes (B), and THP cells (C) were pretreated with inhibitors at the indicated concentrations and stimulated with anti-human IgM (A) and human IgG (B and C). […] The relative intensities of protein phosphorylation levels were quantitated with reference to each lane of β-actin control bands. (D) Ramos cells, human primary monocytes, and THP cells were treated as in A–C for 24 h and levels of phosphorylated Syk (p-Syk) were measured by ELISA.

[2] = tested on: human peripheral T cells; assay: IL-2 production by activated T cells (ELISA); type: cell-based; conditions: fold lower than tofacitinib
Method: (§1) Supplementary F igure 1. SKI -O-592 and - 703 s p a re TCR- mediated signaling in T cells
(§2) (A) The stru cture of SKI-O-703. (B-D) Human per ipheral T cells sorted fro m human peripheral blood mononuclear cells (B and D) and mouse primary T cells sorted from spleen (C ) wer e stimulated with 5 µ g/ml anti- CD3 and 2 µ g/ml anti- CD28 m Abs in the presence or absence of inhibitors as indicated. Af ter one hour (B) and 24 h ours (C and D) of culture, cells we re assaye d […]
(§3) by immunoblotting (B), FA C S ( C), and ELISA (D). […]
(§4) of Zap70 and its downstream target PLCγ1. It’s effect on the suppression of IL-2 production […]
(§5) Supplementary F igure 2. Gating strategy for FACS of spleen cells
(§6) Erythrocyte-d epleted mo use spleen cells w ere assayed by FACS. Whole live cells were gated as shown: plasma cells (C D19lo/- CD138hi), GC B cells (CD19+ CD138- GL-7h i FA S hi), follicular B cells (CD19+ CD43- CD23hi CD21-), marginal zone B cells (CD19+ C D43- CD21hi CD23lo ), and Tfh cells (CD4+ CXCR5+ PD-1hi).
(§7) Supplementary Figure 3. Differential susceptibility of short-lived and long-lived plasma […]
(§8) When spleen cells from NZB/W mice were assay ed by FACS as in Fig. 5, they were stained intracellularly with anti- Ki-67 mAb to distinguish Ki-67+ dividing cells from Ki-67- non-dividing cells among t h e CD138hi population. […]

[3] = biological target: FGFR2 (Homo sapiens, UniProt P21802); assay: Kinase assay (LANCE Ultra TR-FRET), FGFR2; type: biochemical
Method: Kinase assays were conducted in 384-well plates using LANCE ultra 66 time-resolved fluorescence resonance energy transfer (TR-FRET) methods, according to the manufacturer’s instructions (Perkin-Elmer). In brief, each kinase was pre-incubated with a serially diluted compound for 30 min, incubated with ULight poly-GT peptide substrate and ATP for up to 1 h. Thirty minutes after adding Eu-labeled anti-phosphopeptides Ab diluted in LANCE Detection Buffer, LANCE signals were measured with an EnVision multilabel reader (Perkin-Elmer).

[4] = tested on: mouse primary T cells; assay: Annexin V/7-AAD apoptosis assay in TCR-engaged primary T cells; type: cell-based; conditions: up to 5 μM
Method: as §1, §2, §3, §4, §5, §6, §7, §8

[5] = biological target: T2, phosphorylation of Syk in mouse primary B cells (Mus musculus, UniProt P48025); assay: p-Syk by FACS in stimulated mouse primary B cells; type: cell-based; conditions: BCR and CD40 stimulation
T2 construct: endogenous in cells; host or cells: mouse primary B cells (splenic CD19+ B cells of C57BL/6 mice)
Excerpt: Figure 1: in vitro inhibitory effects of SKI-O-592 and -703 on Syk in B cells and monocytes. Ramos cells (A), human primary monocytes (B), and THP cells (C) were pretreated with inhibitors at the indicated concentrations and stimulated with anti-human IgM (A) and human IgG (B and C). The cells were then lysed and assayed by immunoblotting methods. The relative intensities of protein phosphorylation levels were quantitated with reference to each lane of β-actin control bands. (D) Ramos cells, human primary monocytes, and THP cells were treated as in A–C for 24 h and levels of phosphorylated Syk (p-Syk) were measured by ELISA. (E) Mouse primary B cells were stimulated with anti-IgM mAb for 60 min in the presence or absence of SKI-O-703 and assayed for p-Syk by FACS. A representative FACS profile and data on the dose-response of mean fluorescence intensity (MFI) are shown. The data are representative of two independent experiments.

FGFR2, sequence (P21802 22-821, species assumed): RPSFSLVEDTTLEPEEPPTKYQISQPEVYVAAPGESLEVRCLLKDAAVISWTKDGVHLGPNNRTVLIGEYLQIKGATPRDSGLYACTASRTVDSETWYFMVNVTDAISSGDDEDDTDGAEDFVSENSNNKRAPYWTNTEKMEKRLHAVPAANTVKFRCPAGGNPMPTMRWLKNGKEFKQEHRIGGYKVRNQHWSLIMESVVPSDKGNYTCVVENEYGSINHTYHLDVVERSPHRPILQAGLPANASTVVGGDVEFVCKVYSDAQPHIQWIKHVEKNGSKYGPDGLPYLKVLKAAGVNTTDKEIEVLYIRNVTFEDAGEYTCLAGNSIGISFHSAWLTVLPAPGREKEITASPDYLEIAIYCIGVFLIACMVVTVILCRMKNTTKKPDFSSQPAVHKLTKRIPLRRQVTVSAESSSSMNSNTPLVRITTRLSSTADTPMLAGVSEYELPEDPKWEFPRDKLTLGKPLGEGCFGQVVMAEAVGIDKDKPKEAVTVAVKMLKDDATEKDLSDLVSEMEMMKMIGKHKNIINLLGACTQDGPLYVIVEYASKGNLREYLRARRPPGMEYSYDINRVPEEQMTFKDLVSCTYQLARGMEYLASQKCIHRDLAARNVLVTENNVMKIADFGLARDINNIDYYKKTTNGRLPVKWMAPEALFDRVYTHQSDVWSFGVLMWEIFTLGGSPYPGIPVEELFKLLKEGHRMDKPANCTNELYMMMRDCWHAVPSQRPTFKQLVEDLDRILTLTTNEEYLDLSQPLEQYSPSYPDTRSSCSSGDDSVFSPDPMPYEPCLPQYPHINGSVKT
T2 sequence (P48025 whole entry): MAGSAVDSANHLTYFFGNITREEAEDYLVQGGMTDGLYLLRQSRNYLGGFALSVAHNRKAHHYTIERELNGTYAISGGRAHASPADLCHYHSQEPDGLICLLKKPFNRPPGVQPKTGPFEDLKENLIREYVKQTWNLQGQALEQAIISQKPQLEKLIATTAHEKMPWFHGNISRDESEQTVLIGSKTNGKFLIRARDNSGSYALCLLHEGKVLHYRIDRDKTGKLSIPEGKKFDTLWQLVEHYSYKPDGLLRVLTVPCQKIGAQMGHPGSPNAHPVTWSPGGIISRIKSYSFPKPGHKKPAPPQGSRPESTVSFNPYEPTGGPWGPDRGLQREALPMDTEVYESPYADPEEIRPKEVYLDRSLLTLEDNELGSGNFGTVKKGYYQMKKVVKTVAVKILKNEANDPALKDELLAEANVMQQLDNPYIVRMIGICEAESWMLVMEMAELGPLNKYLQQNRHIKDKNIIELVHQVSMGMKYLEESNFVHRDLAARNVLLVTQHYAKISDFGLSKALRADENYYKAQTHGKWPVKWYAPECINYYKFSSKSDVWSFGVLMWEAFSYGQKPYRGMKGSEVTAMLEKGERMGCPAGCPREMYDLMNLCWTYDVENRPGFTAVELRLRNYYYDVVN

Compound: Cc1nn(-c2ccnc(Nc3ccc4c(c3)c(C(=O)C3CC3)cn4C)n2)cc1CN1C[C@H](O)CO1 [SKI-O-592]
- IC50 [1]: 282 nM
- Potency on IL-2 production relative to tofacitinib (IC50) [2]: 25 fold
- Ratio to Syk (FGFR2) ([3]; IC50 ratio to Syk): >1623
- IC50 ([3]; kinase activity, TR-FRET): > 10000 nM

Compound: CS(=O)(=O)O.CS(=O)(=O)O.Cc1nn(-c2ccnc(Nc3ccc4c(c3)c(C(=O)C3CC3)cn4C)n2)cc1CN1C[C@H](O)CO1 [SKI-O-703, (S)-cyclopropyl(5-((4-(4-((4-hydroxyisoxazolidin-2-yl)methyl)-3-methyl-1H-pyrazol-1-yl)pyrimidin-2-yl)amino)-1-methyl-1H-indol-3-yl)methanone dimesylate]
- Proportions of early and late apoptotic T cells [4]: did not promote apoptotic cell death; also recorded: failed to increase
- Phosphorylation of Syk in mouse primary B cells [5]: reduced the phosphorylation of Syk
